Among the data in patent US20080261973A1, “Sulphonamidoaniline Derivatives Being Janus Kinase Inhibitors” (Novartis AG, priority 2005, published 2008) are melting point values, retold here.

As a reminder, the melting point is the temperature of the solid-liquid transition.

The compound `CS(=O)(=O)Nc1cccc(Nc2nc(NC3CN4CCC3CC4)c3nc[nH]c3n2)c1` (centres unmarked) showed a melting point of 200 to 204 °C. Then `CS(=O)(=O)Nc1cccc(Nc2nc(NC3CCC3)c3nc[nH]c3n2)c1` [Example 1, N-[3-(6-Cyclobutylamino-9H-purin-2-ylamino)-phenyl]-methanesulfonamide], with 142 to 146 °C; and `CC(C)Nc1nc(Nc2cccc(NS(C)(=O)=O)c2)nc2[nH]cnc12` [Example 2, N-[3-(6-Isopropylamino-9H-purin-2-ylamino)-phenyl]-methanesulfonamide], with 161 to 165 °C; and `CS(=O)(=O)Nc1cccc(Nc2nc(N3CCC[C@H]3CO)c3nc[nH]c3n2)c1` [Example 3, N-{3-[6-((S)-2-Hydroxymethyl-pyrrolidin-1-yl)-9H-purin-2-ylamino]-phenyl}-methanesulfonamide], with 192 to 197 °C. Then `CS(=O)(=O)Nc1cccc(Nc2nc(NCCc3c[nH]cn3)c3nc[nH]c3n2)c1` [Example 4, N-(3-{6-[2-(1H-Imidazol-4-yl)-ethylamino]-9H-purin-2-ylamino]-phenyl}-methanesulfonamide], with 205 to 210 °C. As for `CC(C)N(CCNc1nc(Nc2cccc(NS(C)(=O)=O)c2)nc2[nH]cnc12)C(C)C` [Example 5, N-(3-{6-[2-Diisopropylamino-ethylamino]-9H-purin-2-ylamino]-phenyl}-methanesulfonamide], the melting point was 226 to 230 °C. With `CN(C)CCNc1nc(Nc2cccc(NS(C)(=O)=O)c2)nc2[nH]cnc12` [Example 6, N-(3-{6-[2-Dimethylamino-ethylamino]-9H-purin-2-ylamino]-phenyl}-methanesulfonamide] the figure was 191 to 195 °C; with `CS(=O)(=O)Nc1cccc(Nc2nc(N3CCN(c4ccncc4)CC3)c3nc[nH]c3n2)c1` [Example 7, N-{3-[6-(4-Pyridin-4-yl-piperazin-1-yl)-9H-purin-2-ylamino]-phenyl}-methanesulfonamide], 227 to 230 °C; with `CN(CCC#N)c1nc(Nc2cccc(NS(C)(=O)=O)c2)nc2[nH]cnc12` [Example 8, N-(3-{6-[(2-Cyano-ethyl)-methyl-amino]-9H-purin-2-ylamino}-phenyl)-methanesulfonamide], 218 to 222 °C. With `CS(=O)(=O)Nc1cccc(Nc2nc(NCCc3ccccn3)c3nc[nH]c3n2)c1` [Example 10, N-{3-[6-(2-Pyridin-2-yl-ethylamino)-9H-purin-2-ylamino]-phenyl}-methanesulfonamide] the figure was 199 to 202 °C; with `CS(=O)(=O)Nc1cccc(Nc2nc(NCC(O)CO)c3nc[nH]c3n2)c1` (centres unmarked) [Example 11, N-{3-[6-(2,3-Dihydroxy-propylamino)-9H-purin-2-ylamino]-phenyl}-methanesulfonamide], 164 to 168 °C.

`CS(=O)(=O)Nc1cccc(Nc2nc(N3CCC(O)C3)c3nc[nH]c3n2)c1` (centres unmarked) [Example 12, N-{3-[6-(3-Hydroxy-pyrrolidin-1-yl)-9H-purin-2-ylamino]-phenyl}-methanesulfonamide] showed a melting point of 243 to 248 °C. Then `Cc1cn(-c2nc(Nc3cccc(NS(C)(=O)=O)c3)nc3[nH]cnc23)cn1` [Example 13, N-{3-[6-(4-Methyl-imidazol-1-yl)-9H-purin-2-ylamino]-phenyl}-methanesulfonamide], with 298 to 301 °C; and `CS(=O)(=O)Nc1cccc(Nc2nc(N3CCCC3)c3nc[nH]c3n2)c1` [Example 14, N-[3-(6-Pyrrolidin-1-yl-9H-purin-2-ylamino)-phenyl]-methanesulfonamide], with 164 to 168 °C. For `CS(=O)(=O)Nc1cccc(Nc2nc(NCc3cccnc3)c3nc[nH]c3n2)c1` [Example 15, N-(3-{6-[(Pyridin-3-ylmethyl)-amino]-9H-purin-2-ylamino}-phenyl)-methanesulfonamide], the melting point lay within 144 to 147 °C.

In the case of `CC(C)(CO)Nc1nc(Nc2cccc(NS(C)(=O)=O)c2)nc2[nH]cnc12` [Example 16, N-{3-[6-(2-Hydroxy-1,1-dimethyl-ethylamino)-9H-purin-2-ylamino]-phenyl}-methanesulfonamide], the melting point lay in the range of 215 to 218 °C.

For the compound `CS(=O)(=O)Nc1cccc(Nc2nc(NCCO)c3nc[nH]c3n2)c1` [Example 17, N-{3-[6-(2-Hydroxy-ethylamino)-9H-purin-2-ylamino]-phenyl}-methanesulfonamide], the melting point lay in the range of 163 to 166 °C. Then `CN1CCN(c2nc(Nc3cccc(NS(C)(=O)=O)c3)nc3[nH]cnc23)CC1` [Example 18, N-{3-[6-(4-Methyl-piperazin-1-yl)-9H-purin-2-ylamino]-phenyl}-methanesulfonamide], with 148 to 151 °C; and `CN(C)c1ccc(CNc2nc(Nc3cccc(NS(C)(=O)=O)c3)nc3[nH]cnc23)cc1` [Example 20, N-{3-[6-(4-Dimethylamino-benzylamino)-9H-purin-2-ylamino]-phenyl}-methanesulfonamide], with 138 to 142 °C. The compound `CS(=O)(=O)Nc1cccc(Nc2nc(NCC3CCCCN3)c3nc[nH]c3n2)c1` (centres unmarked) [Example 21, N-(3-{6-[(Piperidin-2-ylmethyl)-amino]-9H-purin-2-ylamino}-phenyl)-methanesulfonamide] had a melting point of 147 to 150 °C.

The compound `CS(=O)(=O)Nc1cccc(Nc2nc(NCCN3CCOCC3)c3nc[nH]c3n2)c1` [Example 22, N-{3-[6-(2-Morpholin-4-yl-ethylamino)-9H-purin-2-ylamino]-phenyl}-methanesulfonamide] yielded a melting point of 233 to 237 °C.

For `CS(=O)(=O)Nc1cccc(Nc2nc(OC3CCCC3)c3nc[nH]c3n2)c1` [Example 23, N-[3-(6-Cyclopentyloxy-9H-purin-2-ylamino)-phenyl]-methanesulfonamide], the melting point lay within 137 to 140 °C. With `CS(=O)(=O)Nc1cccc(Nc2nc(OCC3CCCCC3)c3nc[nH]c3n2)c1` [Example 24, N-[3-(6-Cyclohexylmethoxy-9H-purin-2-ylamino)-phenyl]-methanesulfonamide] the figure was 169 to 172 °C; with `CS(=O)(=O)Nc1cccc(Nc2nc(OC3CCOC3)c3nc[nH]c3n2)c1` (centres unmarked) [Example 25, N-{3-[6-(Tetrahydro-furan-3-yloxy)-9H-purin-2-ylamino]-phenyl}-methanesulfonamide], 255 to 257 °C. With `O=S(=O)(Nc1cccc(Nc2nc(NC3CCCC3)c3nc[nH]c3n2)c1)C(F)(F)F` [Example 27, N-[3-(6-Cyclopentylamino-9H-purin-2-ylamino)-phenyl]-C,C,C-trifluoro-methanesulfonamide] the figure was 243 to 246 °C; with `CN(C)c1cccc(CNc2nc(Nc3cccc(NS(C)(=O)=O)c3)nc3[nH]cnc23)c1` [Example 31, N-{3-[6-(3-Dimethylamino-benzylamino)-9H-purin-2-ylamino]-phenyl}-methanesulfonamide], 148 to 151 °C; with `COCCOc1nc(Nc2cccc(NS(C)(=O)=O)c2)nc2[nH]cnc12` [Example 32, N-{3-[6-(2-Methoxy-ethoxy)-9H-purin-2-ylamino]-phenyl}-methanesulfonamide], 201 to 204 °C. On to `CC(C)N(C)c1nc(Nc2cccc(NS(C)(=O)=O)c2)nc2[nH]cnc12` [Example 36, N-{3-[6-(Isopropyl-methyl-amino)-9H-purin-2-ylamino]-phenyl}-methanesulfonamide], for which the melting point was 144 to 147 °C. Compound `CS(=O)(=O)Nc1cccc(Nc2nc(NC3CCCC3)c3nc[nH]c3n2)c1` [Example 37, N-[3-(6-Cyclopentylamino-9H-purin-2-ylamino)-phenyl]-methanesulfonamide] came in with a melting point of 234 to 239 °C. Turning to `C[C@H](Nc1nc(Nc2cccc(NS(C)(=O)=O)c2)nc2[nH]cnc12)C(C)(C)C` [Example 38, N-{3-[6-((S)-1,2,2-Trimethyl-propylamino)-9H-purin-2-ylamino]-phenyl}-methanesulfonamide], the melting point was 150 to 153 °C.

Take `C[C@@H](Nc1nc(Nc2cccc(NS(C)(=O)=O)c2)nc2[nH]cnc12)C(C)(C)C` [Example 39, N-{3-[6-((R)-1,2,2-Trimethyl-propylamino)-9H-purin-2-ylamino]-phenyl}-methanesulfonamide]: the melting point is 169 to 171 °C. Then `C[C@H](Nc1nc(Nc2cccc(NS(C)(=O)=O)c2)nc2[nH]cnc12)c1ccccc1` [Example 40, N-{3-[6-((S)-1-Phenyl-ethylamino)-9H-purin-2-ylamino]-phenyl}-methanesulfonamide], with 141 to 144 °C; and `C[C@@H](Nc1nc(Nc2cccc(NS(C)(=O)=O)c2)nc2[nH]cnc12)c1ccccc1` [Example 41, N-{3-[6-((R)-1-Phenyl-ethylamino)-9H-purin-2-ylamino]-phenyl}-methanesulfonamide], with 136 to 139 °C. `CS(=O)(=O)Nc1cccc(Nc2nc(OC3CCCC3)c3cc[nH]c3n2)c1` [Example 43, N-[3-(4-Cyclopentyloxy-7H-pyrrolo[2,3-d]pyrimidin-2-ylamino)-phenyl]-methanesulfonamide] gave a melting point of 203 to 205 °C. Then `CS(=O)(=O)Nc1ccc(Nc2nc(NC3CCCC3)c3nc[nH]c3n2)cc1` [Example 44, N-[4-(6-Cyclopentylamino-9H-purin-2-ylamino)-phenyl]-methanesulfonamide], with 261 to 265 °C. On to `CS(=O)(=O)Nc1cccc(Nc2nc(NCc3ncc[nH]3)c3nc[nH]c3n2)c1` [Example 45, N-(3-{6-[(1H-Imidazol-2-ylmethyl)-amino]-9H-purin-2-ylamino}-phenyl)-methanesulfonamide], for which the melting point lay in the range of 216 to 220 °C. With `CS(=O)(=O)Nc1cccc(Nc2nc(Oc3ccc(F)cc3)c3nc[nH]c3n2)c1` [Example 46, N-{3-[6-(4-Fluoro-phenoxy)-9H-purin-2-ylamino]-phenyl}-methanesulfonamide] the figure was 136 to 139 °C. With `C[C@@H](Nc1nc(Nc2cccc(NS(C)(=O)=O)c2)nc2[nH]ccc12)C(C)(C)C` [Example 49, N-{3-[4-((R)-1,2,2-Trimethyl-propylamino)-7H-pyrrolo[2,3-d]pyrimidin-2-ylamino]-phenyl}-methanesulfonamide] the figure was 125 to 128 °C.
